In ChEMBL document CHEMBL3991601, “The target landscape of clinical kinase drugs” (Science, 2017):
Calls of active or inactive are those of the source.

Columns and labels:
Adenosine kinase = Adenosine kinase (Homo sapiens, UniProt P55263)
[1] = molecular target: T1, Ras-related protein Rab-27A (Homo sapiens, UniProt P51159)
T1 sequence (P51159 whole entry): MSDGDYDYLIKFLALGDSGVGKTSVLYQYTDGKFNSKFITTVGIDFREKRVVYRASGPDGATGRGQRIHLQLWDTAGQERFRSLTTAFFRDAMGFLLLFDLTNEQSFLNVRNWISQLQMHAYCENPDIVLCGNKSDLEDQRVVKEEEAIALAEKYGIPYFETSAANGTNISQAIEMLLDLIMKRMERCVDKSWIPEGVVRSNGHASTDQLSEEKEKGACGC

[2] = molecular target: T2, Serine/threonine-protein kinase NLK (Homo sapiens, UniProt Q9UBE8)
T2 sequence (Q9UBE8 whole entry): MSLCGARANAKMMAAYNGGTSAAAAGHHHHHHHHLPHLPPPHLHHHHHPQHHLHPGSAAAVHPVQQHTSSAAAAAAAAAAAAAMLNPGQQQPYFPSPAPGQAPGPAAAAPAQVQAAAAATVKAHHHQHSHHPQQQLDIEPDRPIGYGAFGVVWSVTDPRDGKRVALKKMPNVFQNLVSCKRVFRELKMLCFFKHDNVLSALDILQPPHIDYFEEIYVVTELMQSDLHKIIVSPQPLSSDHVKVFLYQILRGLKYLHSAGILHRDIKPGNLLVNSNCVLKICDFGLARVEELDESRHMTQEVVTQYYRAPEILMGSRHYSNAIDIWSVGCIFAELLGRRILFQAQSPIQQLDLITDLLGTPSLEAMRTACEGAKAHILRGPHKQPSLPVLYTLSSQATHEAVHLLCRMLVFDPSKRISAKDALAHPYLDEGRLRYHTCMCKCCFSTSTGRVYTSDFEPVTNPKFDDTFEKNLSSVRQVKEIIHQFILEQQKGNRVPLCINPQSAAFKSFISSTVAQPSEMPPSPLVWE

[3] = molecular target: T3, NUAK family SNF1-like kinase 2 (Homo sapiens, UniProt Q9H093)
T3 sequence (Q9H093 whole entry): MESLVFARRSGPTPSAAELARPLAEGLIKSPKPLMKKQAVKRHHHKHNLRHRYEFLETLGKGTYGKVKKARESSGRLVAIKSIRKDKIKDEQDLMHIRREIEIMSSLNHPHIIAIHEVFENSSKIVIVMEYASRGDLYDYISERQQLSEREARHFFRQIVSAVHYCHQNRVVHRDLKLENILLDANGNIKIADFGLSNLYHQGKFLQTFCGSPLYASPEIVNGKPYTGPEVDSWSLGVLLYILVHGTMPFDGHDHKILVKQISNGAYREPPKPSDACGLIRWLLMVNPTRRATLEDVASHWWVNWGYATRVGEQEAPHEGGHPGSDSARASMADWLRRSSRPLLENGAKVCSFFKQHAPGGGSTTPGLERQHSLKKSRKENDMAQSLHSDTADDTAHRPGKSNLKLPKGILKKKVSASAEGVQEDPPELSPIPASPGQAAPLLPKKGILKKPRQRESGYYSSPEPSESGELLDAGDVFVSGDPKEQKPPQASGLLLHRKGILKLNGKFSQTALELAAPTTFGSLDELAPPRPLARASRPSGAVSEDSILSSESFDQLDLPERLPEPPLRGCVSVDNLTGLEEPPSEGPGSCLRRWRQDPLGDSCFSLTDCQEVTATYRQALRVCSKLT

[4] = molecular target: Casein kinase I isoform gamma-1 (Homo sapiens, UniProt Q9HCP0)
[5] = molecular target: BMP-2-inducible protein kinase (Homo sapiens, UniProt Q9NSY1)
[6] = molecular target: MAP kinase-activated protein kinase 2 (Homo sapiens, UniProt P49137)
[7] = molecular target: T4, Tyrosine-protein kinase Tec (Homo sapiens, UniProt P42680)
T4 sequence (P42680 whole entry): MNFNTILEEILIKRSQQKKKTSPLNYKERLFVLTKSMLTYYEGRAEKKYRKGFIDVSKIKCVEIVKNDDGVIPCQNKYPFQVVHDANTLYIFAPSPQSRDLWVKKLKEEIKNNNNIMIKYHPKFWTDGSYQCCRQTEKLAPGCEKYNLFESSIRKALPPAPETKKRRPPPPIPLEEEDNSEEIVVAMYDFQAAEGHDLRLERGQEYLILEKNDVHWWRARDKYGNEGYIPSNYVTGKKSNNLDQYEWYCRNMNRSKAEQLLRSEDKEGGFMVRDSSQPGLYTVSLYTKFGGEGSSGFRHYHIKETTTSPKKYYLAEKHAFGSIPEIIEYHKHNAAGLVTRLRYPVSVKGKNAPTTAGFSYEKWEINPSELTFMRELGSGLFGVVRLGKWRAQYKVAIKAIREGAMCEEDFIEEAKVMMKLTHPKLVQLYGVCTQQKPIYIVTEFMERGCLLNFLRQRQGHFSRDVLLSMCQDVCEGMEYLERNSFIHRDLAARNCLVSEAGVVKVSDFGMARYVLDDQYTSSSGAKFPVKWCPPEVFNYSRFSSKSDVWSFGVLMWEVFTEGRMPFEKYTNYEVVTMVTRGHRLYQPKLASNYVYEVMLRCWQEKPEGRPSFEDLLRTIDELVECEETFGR

[8] = molecular target: Tyrosine-protein kinase ABL2 (Homo sapiens, UniProt P42684)
[9] = molecular target: T5, Delta(24)-sterol reductase (Homo sapiens, UniProt Q15392)
T5 sequence (Q15392 whole entry): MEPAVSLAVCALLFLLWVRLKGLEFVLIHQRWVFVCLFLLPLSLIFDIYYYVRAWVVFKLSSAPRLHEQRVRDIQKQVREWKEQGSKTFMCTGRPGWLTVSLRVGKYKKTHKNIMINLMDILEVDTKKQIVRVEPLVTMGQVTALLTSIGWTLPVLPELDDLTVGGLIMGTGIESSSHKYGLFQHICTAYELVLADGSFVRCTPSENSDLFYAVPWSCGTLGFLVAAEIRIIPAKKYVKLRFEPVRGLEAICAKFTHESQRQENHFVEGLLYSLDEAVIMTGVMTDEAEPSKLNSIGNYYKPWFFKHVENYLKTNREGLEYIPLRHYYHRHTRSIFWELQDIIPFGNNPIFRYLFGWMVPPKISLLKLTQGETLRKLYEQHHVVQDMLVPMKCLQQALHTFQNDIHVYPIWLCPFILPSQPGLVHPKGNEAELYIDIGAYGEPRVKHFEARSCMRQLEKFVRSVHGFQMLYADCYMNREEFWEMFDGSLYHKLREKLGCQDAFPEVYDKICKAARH

[10] = molecular target: Protein kinase C delta type (Homo sapiens, UniProt Q05655)
Further: in the data inactive means no Kd found up to 30 µM.

Chain of BMP-2-inducible protein kinase (Q9NSY1 whole entry): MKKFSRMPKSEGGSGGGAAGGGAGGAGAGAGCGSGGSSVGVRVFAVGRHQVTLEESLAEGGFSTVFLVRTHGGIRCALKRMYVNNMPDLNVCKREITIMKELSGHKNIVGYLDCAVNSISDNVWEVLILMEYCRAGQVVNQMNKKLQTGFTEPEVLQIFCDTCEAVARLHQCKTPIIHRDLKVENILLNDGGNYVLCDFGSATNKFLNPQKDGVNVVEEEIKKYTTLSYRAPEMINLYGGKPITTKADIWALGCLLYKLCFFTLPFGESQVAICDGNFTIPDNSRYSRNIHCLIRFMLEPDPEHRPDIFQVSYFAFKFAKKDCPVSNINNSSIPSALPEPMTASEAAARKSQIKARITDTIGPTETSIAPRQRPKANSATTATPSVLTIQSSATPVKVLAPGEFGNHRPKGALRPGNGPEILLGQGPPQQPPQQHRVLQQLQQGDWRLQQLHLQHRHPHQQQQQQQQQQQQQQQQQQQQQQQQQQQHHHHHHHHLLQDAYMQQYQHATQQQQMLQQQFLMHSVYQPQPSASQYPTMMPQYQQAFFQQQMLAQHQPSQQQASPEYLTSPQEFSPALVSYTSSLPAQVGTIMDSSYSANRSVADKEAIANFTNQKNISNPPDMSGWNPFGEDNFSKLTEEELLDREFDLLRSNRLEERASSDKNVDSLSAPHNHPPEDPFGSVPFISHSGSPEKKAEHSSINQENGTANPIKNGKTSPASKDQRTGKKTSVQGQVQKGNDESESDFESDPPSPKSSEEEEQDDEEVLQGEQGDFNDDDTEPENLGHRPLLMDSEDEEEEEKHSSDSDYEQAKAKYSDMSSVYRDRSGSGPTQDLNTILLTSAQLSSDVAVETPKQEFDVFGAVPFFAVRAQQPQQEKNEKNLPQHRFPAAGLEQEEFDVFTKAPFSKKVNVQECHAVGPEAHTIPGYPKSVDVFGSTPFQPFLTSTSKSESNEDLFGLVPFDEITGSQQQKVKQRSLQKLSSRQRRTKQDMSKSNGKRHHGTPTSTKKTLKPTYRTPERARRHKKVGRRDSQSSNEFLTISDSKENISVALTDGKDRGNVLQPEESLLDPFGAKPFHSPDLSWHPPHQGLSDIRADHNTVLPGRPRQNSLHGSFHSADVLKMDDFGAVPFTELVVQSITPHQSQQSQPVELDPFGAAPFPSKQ
Chain of Protein kinase C delta type (Q05655 whole entry): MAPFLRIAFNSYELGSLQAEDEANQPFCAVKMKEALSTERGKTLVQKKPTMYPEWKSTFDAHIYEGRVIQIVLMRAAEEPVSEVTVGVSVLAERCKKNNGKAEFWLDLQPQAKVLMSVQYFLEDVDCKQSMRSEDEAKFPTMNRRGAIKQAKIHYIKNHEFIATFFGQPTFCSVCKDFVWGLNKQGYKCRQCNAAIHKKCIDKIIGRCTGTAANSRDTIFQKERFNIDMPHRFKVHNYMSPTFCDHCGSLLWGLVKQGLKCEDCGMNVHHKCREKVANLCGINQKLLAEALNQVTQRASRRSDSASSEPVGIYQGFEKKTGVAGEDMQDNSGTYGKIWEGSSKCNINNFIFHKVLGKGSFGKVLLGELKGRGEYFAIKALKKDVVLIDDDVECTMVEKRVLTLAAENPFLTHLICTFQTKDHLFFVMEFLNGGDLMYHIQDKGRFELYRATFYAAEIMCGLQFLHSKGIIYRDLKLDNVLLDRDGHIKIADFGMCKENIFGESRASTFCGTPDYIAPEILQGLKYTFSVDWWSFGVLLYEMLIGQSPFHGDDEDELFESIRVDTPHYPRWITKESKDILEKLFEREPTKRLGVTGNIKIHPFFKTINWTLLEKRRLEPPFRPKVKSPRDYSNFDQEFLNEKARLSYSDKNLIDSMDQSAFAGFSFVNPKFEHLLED
Chain of MAP kinase-activated protein kinase 2 (P49137 whole entry): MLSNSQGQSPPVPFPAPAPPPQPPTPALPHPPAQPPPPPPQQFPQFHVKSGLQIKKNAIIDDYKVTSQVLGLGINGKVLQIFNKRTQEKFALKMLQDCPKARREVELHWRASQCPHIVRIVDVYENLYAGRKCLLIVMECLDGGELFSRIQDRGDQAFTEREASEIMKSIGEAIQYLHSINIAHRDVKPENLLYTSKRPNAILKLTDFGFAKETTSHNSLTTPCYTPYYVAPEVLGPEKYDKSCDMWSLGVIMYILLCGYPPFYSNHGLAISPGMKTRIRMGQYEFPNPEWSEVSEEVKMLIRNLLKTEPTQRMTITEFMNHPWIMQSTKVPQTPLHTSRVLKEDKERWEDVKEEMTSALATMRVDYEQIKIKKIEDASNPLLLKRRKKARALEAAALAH
Chain of Adenosine kinase (P55263 whole entry): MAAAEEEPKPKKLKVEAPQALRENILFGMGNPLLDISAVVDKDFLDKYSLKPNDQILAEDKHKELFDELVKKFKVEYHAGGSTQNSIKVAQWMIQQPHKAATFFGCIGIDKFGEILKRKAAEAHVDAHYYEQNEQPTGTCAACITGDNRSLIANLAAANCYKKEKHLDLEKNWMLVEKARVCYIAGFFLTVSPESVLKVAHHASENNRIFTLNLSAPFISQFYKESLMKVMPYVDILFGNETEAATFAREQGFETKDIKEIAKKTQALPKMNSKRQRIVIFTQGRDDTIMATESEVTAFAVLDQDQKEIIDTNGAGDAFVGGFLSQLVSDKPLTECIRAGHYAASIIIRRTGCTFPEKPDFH
Chain of Casein kinase I isoform gamma-1 (Q9HCP0 whole entry, canonical isoform): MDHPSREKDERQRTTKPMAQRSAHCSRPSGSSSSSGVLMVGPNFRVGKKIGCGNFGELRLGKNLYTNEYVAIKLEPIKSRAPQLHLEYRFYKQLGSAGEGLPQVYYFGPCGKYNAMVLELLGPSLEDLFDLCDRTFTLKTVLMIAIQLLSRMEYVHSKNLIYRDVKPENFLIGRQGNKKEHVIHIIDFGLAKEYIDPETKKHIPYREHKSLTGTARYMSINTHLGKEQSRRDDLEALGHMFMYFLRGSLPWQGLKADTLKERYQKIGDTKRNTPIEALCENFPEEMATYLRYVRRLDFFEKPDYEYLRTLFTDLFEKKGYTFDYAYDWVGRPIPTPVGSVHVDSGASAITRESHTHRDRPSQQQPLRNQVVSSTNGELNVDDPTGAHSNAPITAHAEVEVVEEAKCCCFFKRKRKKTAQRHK
Chain of Tyrosine-protein kinase ABL2 (P42684 whole entry): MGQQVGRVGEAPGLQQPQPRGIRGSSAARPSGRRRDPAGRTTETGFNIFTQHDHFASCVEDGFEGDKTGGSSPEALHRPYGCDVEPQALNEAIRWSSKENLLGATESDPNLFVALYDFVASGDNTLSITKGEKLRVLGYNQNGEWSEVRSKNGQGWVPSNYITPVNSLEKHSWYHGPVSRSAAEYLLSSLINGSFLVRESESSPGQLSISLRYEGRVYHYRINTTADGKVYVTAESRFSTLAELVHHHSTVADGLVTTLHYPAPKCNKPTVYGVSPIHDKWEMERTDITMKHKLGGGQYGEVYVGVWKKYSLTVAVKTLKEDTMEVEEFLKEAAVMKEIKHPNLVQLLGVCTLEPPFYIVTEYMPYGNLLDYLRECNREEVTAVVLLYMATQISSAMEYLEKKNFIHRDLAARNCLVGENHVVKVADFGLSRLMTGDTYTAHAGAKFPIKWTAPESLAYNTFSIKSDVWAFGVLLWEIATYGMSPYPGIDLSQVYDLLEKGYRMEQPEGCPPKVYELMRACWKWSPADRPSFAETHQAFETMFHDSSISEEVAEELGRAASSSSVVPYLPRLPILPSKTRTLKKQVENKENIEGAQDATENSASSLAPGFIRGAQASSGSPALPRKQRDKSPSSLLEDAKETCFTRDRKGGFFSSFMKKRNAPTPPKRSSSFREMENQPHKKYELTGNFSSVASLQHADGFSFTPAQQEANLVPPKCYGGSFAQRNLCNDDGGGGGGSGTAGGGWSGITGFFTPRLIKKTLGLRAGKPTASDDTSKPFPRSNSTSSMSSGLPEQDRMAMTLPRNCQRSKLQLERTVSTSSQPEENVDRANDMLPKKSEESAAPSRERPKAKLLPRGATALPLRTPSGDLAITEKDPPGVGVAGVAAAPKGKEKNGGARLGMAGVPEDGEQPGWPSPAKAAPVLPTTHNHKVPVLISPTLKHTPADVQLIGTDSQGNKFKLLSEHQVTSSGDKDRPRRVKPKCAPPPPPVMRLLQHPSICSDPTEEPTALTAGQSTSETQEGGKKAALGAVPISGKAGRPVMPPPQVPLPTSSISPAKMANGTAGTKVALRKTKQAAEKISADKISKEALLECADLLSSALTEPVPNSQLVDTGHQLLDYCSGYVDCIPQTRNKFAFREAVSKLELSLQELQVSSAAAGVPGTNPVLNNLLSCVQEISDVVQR

Row | SMILES | Kd (Adenosine kinase) | Kd [1] | Kd [2] | Kd [3] | Kd [4] | Kd [5] | Kd [6] | Kd [7] | Kd [8] | Kd [9] | Kd [10]
1 | CNC(=O)c1cc(Oc2ccc(NC(=O)Nc3ccc(Cl)c(C(F)(F)F)c3)c(F)c2)ccn1 [REGORAFENIB] | > 30 µM (inactive) | > 30 µM (inactive) | > 30 µM (inactive) | > 30 µM (inactive) | > 30 µM (inactive) | > 30 µM (inactive) | 0.682 µM (active) | > 30 µM (inactive) | > 30 µM (inactive) | > 30 µM (inactive) | > 30 µM (inactive)
2 | CNS(=O)(=O)Nc1nccc(Cc2c(C)c3ccc(Oc4ncccn4)cc3oc2=O)c1F [AVUTOMETINIB] | > 30 µM (inactive) | > 30 µM (inactive) | > 30 µM (inactive) | > 30 µM (inactive) | > 30 µM (inactive) | > 30 µM (inactive) | > 30 µM (inactive) | > 30 µM (inactive) | > 30 µM (inactive) | > 30 µM (inactive) | > 30 µM (inactive)
3 | CCCS(=O)(=O)Nc1ccc(F)c(C(=O)c2c[nH]c3ncc(-c4ccc(Cl)cc4)cc23)c1F [VEMURAFENIB] | > 30 µM (inactive) | > 30 µM (inactive) | > 30 µM (inactive) | > 30 µM (inactive) | > 30 µM (inactive) | > 30 µM (inactive) | > 30 µM (inactive) | > 30 µM (inactive) | > 30 µM (inactive) | > 30 µM (inactive) | > 30 µM (inactive)
4 | COc1cc2nccc(Oc3ccc(NC(=O)NC4CC4)c(Cl)c3)c2cc1C(N)=O [LENVATINIB] | > 30 µM (inactive) | > 30 µM (inactive) | > 30 µM (inactive) | > 30 µM (inactive) | > 30 µM (inactive) | > 30 µM (inactive) | 0.063 µM (active) | > 30 µM (inactive) | > 30 µM (inactive) | > 30 µM (inactive) | > 30 µM (inactive)
5 | Cc1cc2c(F)c(Oc3ncnn4cc(OC[C@@H](C)OC(=O)[C@H](C)N)c(C)c34)ccc2[nH]1 [BRIVANIB ALANINATE] | > 30 µM (inactive) | > 30 µM (inactive) | > 30 µM (inactive) | 0.003 µM | > 30 µM (inactive) | > 30 µM (inactive) | > 30 µM (inactive) | > 30 µM (inactive) | > 30 µM (inactive) | > 30 µM (inactive) | > 30 µM (inactive)
6 | Cc1ccc(S(=O)(=O)Nc2nc3ccccc3nc2Nc2ccc3nsnc3c2)cc1 | > 30 µM (inactive) | > 30 µM (inactive) | > 30 µM (inactive) | > 30 µM (inactive) | > 30 µM (inactive) | > 30 µM (inactive) | > 30 µM (inactive) | > 30 µM (inactive) | > 30 µM (inactive) | > 30 µM (inactive) | > 30 µM (inactive)
7 | C1=C/COCc2cc(ccc2OCCN2CCCC2)Nc2nccc(n2)-c2cccc(c2)COC/1 [PACRITINIB] | > 30 µM (inactive) | – | > 30 µM (inactive) | > 30 µM (inactive) | > 30 µM (inactive) | 0.039 µM (active) | > 30 µM (inactive) | > 30 µM (inactive) | > 30 µM (inactive) | > 30 µM (inactive) | > 30 µM (inactive)
8 | C[C@@H]1CN(Cc2ccc(F)cc2)[C@@H](C)CN1C(=O)c1cc2c(C(=O)C(=O)N(C)C)cn(C)c2cc1Cl [TALMAPIMOD] | > 30 µM (inactive) | > 30 µM (inactive) | > 30 µM (inactive) | > 30 µM (inactive) | > 30 µM (inactive) | > 30 µM (inactive) | 0.019 µM | > 30 µM (inactive) | > 30 µM (inactive) | – | > 30 µM (inactive)

Next, values leading:

Row | Kd (Adenosine kinase) | Kd [1] | Kd [2] | Kd [3] | Kd [4] | Kd [5] | Kd [6] | Kd [7] | Kd [8] | Kd [9] | Kd [10] | SMILES
9 | > 30 µM (inactive) | > 30 µM (inactive) | > 30 µM (inactive) | > 30 µM (inactive) | > 30 µM (inactive) | > 30 µM (inactive) | > 30 µM (inactive) | > 30 µM (inactive) | > 30 µM (inactive) | > 30 µM (inactive) | > 30 µM (inactive) | C[C@@H](Nc1cc(F)cc(F)c1)c1cc(C(=O)N(C)C)cc2c(=O)cc(N3CCOCC3)oc12 [AZD-8186]
10 | > 30 µM (inactive) | > 30 µM (inactive) | > 30 µM (inactive) | > 30 µM (inactive) | > 30 µM (inactive) | > 30 µM (inactive) | > 30 µM (inactive) | > 30 µM (inactive) | > 30 µM (inactive) | > 30 µM (inactive) | > 30 µM (inactive) | Cc1cc([C@@H](C)Nc2ccccc2C(=O)O)c2nc(N3CCOCC3)cc(=O)n2c1 [AZD-6482]
11 | > 30 µM (inactive) | > 30 µM (inactive) | 0.027 µM | > 30 µM (inactive) | > 30 µM (inactive) | 0.02 µM (active) | 0.354 µM (active) | > 30 µM (inactive) | > 30 µM (inactive) | > 30 µM (inactive) | > 30 µM (inactive) | O=C(Nc1ccc(-c2ccnc(Nc3ccc(N4CCOCC4)cc3)n2)cc1)C1CCCN1 (centres undefined) [XL-019]
12 | – | > 30 µM (inactive) | > 30 µM (inactive) | > 30 µM (inactive) | > 30 µM (inactive) | > 30 µM (inactive) | > 30 µM (inactive) | 1.02 µM (active) | > 30 µM (inactive) | > 30 µM (inactive) | > 30 µM (inactive) | COc1cc(N2CCC(N3CCN(C)CC3)CC2)ccc1Nc1ncnc(Nc2ccccc2S(=O)(=O)C(C)C)n1 [ASP-3026]
13 | > 30 µM (inactive) | – | > 30 µM (inactive) | > 30 µM (inactive) | > 30 µM (inactive) | > 30 µM (inactive) | > 30 µM (inactive) | > 30 µM (inactive) | > 30 µM (inactive) | > 30 µM (inactive) | > 30 µM (inactive) | COc1cc(CCc2cc(NC(=O)c3ccc(N4C[C@@H](C)N[C@@H](C)C4)cc3)n[nH]2)cc(OC)c1 [AZD-4547]
